Patent publication US20180371044A1, “PEPTIDOMIMETIC MACROCYCLES” (Aileron Therapeutics, Inc., priority 2015, published 2018)
Where a SMILES comes first, the peptide text is derived from it. Bridges are numbered along the chain shown (N, C = ends). [ ]: non-standard residue; d: D form. NMeY = CN[C@@H](Cc1ccc(O)cc1)C(=O)O; R8 = C=CCCCCCC[C@@](C)(N)C(=O)O; S5 = C=CCCC[C@](C)(N)C(=O)O; Nle = CCCC[C@H](N)C(=O)O

Tests used:
Plasma compatibility = type: physicochemical
Protocol: The plasma compatibility of exemplary peptidomimetic macrocycles was also determined. Peptidomimetic macrocycles with a plasma compatability value (PC) that is greater than 0.1 were determined as being plasma compatible.

[1] = Plasma PK/PD study in rats; type: in vivo, rat; settings: male Sprague-Dawley rats; for MRT / clearance / Vd / half-life / AUC(0-inf): rat, 3 mg/kg; for clearance: read-out: Clp (converted); for Vd: read-out: Vdss; for half-life: read-out: t ½ (converted); for AUC(0-inf): route not given
Protocol: Five peptidomimetic macrocycles of the invention, as well as sermorelin, were studied to determine pharmacokinetic and pharmacodynamic parameters in rats. Male Sprague-Dawley rats (300 g, non-fasted, cannulated) were used. The study had three arms: IV administration, SC administration, and SC administration (vehicle control). For experiments using sermorelin, a dose level of 3 mg/kg IV/SC bolus was used (dose volume of […] dose and dose concentration of 1 mg/mL). The vehicle used was: 10 wt % N, N-Dimethylacetamide, 10 wt % DMSO, 2 wt % Solutol HS 15 in water for injection containing 45 mg/mL (4.5 wt %) Mannitol and 25 mM (0.38 wt %) Histidine (pH 7.5; 320 mOsm/kg). The peptide was first dissolved at high concentration in DMA and DMSO before a second dilution in Solutol vehicle.
For experiments using peptidomimetic macrocycles, 0.1 mL of DMA and 0.1 mL of DMSO were used to combine with each mg of macrocycle (˜4.3-4.5 mg of macrocycle used in each experiment). Sonication was used to ensure complete solubilization. 0.8 mL of Solutol vehicle was used for each mg of macrocycle in DMA/DMSO. The solutions were mixed gently with pipet or light vortexing. Fresh vials were used for each day of dosing, and macrocycles were stored solid at −20° C. prior to formulation.
For each study arm, 2 rats were bled (350 μL) at specific time points (5 min, 15 min, 30 min, 1 h, 2 h, 4 h, 8 h, 24 h, and 48 h) and a 150 μL bleed was performed just before dosing. Plasma was prepared into K2EDTA tubes by centrifuging for 20 minutes at 4° C. at 2000G maximum 30 minutes after collection. From each 350 μL bleed, 120 μL were transferred to one tube for PK studies and 50 μL to another tube for PD studies and frozen immediately. From the 150 μL bleed, 70 μL were transferred to one tube for PD studies and frozen immediately.

[2] = biological target: T1, human GHRH receptor (hGHRHR) (Homo sapiens, UniProt Q02643); experiment: GHRHR agonism measured by cAMP (HTRF) in human 293 cells expressing hGHRHR; type: cell-based; settings: 30 min at RT;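 note: receptor expressed transiently or stably, cells stimulated in serum-free medium, EC50 from a non-linear dose-response fit, maximal response defined by reference GHRH stimulation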
T1 construct: expressed in transfected cells; host or cells: Human 293 cells
T1 sequence (Q02643 23-423): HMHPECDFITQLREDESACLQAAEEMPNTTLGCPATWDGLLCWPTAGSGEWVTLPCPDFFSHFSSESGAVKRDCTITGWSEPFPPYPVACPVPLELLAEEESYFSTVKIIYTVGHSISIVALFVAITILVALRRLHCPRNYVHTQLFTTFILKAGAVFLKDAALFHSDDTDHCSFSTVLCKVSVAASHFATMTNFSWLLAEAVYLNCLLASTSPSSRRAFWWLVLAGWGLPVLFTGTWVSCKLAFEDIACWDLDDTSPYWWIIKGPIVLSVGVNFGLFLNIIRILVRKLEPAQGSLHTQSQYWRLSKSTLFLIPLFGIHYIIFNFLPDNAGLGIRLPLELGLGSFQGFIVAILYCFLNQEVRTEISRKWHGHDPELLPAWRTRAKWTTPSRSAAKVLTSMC
Protocol: GHRH (1-29) and cross-linked peptidomimetic macrocycles were tested for agonism at the human GHRH receptor (hGHRHR) at various concentrations. Human 293 cells transiently or stably expressing hGHRHR were detached from cell culture flasks with versene (Life Technologies™), suspended in serum-free medium (50 k cells/assay point), and stimulated for 30 min at RT with GHRH (1-29) (Bachem™) or cross-linked peptidomimetic macrocycles. cAMP was quantified using an HTRF®-based assay (CisBio) and used according to the manufacturer's instructions. An EC50 for each agonist was calculated from a non-linear fit of response vs dose (GraphPad™ Prism). The maximum response was determined by stimulating with 10 μM GHRH (1-29). (+=>50 nm; ++=>25-50 nm; +++=>10-25 nm; ++++=>1-10 nm; +++++=≤1 nm).

Row | SMILES | Plasma Compatability (Plasma compatibility) | AUC Ext (%) [1] | MRT [1] | clearance [1] | Vd [1] | half-life [1] | AUC(0-inf) [1] | EC50 [2]
1 | CCCC[C@H](NC(=O)[C@@H](NC(=O)[C@H](CC(=O)O)NC(=O)[C@H](CCC(N)=O)NC(=O)[C@H](CC(C)C)NC(=O)[C@H](C)NC(=O)[C@H](CCCCN)NC(=O)[C@H](CCCNC(=N)N)NC(=O)[C@H](C)NC(=O)[C@H](CO)NC(=O)[C@]1(C)CCCC=CCCC[C@](C)(NC(=O)[C@H](CCCCN)NC(=O)[C@H](CCCNC(=N)N)NC(=O)[C@H](Cc2ccc(O)cc2)NC(=O)[C@H](CO)NC(=O)[C@H](CCC(N)=O)NC(=O)[C@@H](NC(=O)[C@H](Cc2ccccc2)NC(=O)[C@@H](NC(=O)[C@H](C)NC(=O)[C@H](CC(=O)O)NC(=O)[C@@H](C)NC(=O)[C@@H](N)Cc2ccc(O)cc2)[C@@H](C)CC)[C@@H](C)O)C(=O)N[C@@H](CC(C)C)C(=O)N[C@@H](C)C(=O)N[C@@H](CCC(N)=O)C(=O)N1)[C@@H](C)CC)C(=O)N[C@@H](CO)C(=O)N[C@@H](CCCNC(=N)N)C(N)=O (single isomer, unassigned) [SP-108] | 1.6 mg/mL |  |  |  |  |  |  | 
2 | CCCC[C@H](NC(=O)[C@@H](NC(=O)[C@H](CC(=O)O)NC(=O)[C@H](CCC(N)=O)NC(=O)[C@H](CC(C)C)NC(=O)[C@H](C)NC(=O)[C@H](CCCCN)NC(=O)[C@H](CCCNC(=N)N)NC(=O)[C@H](C)NC(=O)[C@H](CO)NC(=O)[C@]1(C)CCCC=CCCC[C@](C)(NC(=O)[C@H](CCCCN)NC(=O)[C@H](CCCNC(=N)N)NC(=O)[C@H](Cc2ccc(O)cc2)NC(=O)[C@H](CO)NC(=O)[C@H](CCC(N)=O)NC(=O)[C@@H](NC(=O)[C@H](Cc2ccccc2)NC(=O)[C@@H](NC(=O)[C@H](C)NC(=O)[C@H](CC(=O)O)NC(=O)[C@@H](C)NC(=O)[C@@H](N)Cc2ccc(O)cc2)[C@@H](C)CC)[C@@H](C)O)C(=O)N[C@@H](CC(C)C)C(=O)N[C@@H](C)C(=O)N[C@@H](C)C(=O)N1)[C@@H](C)CC)C(=O)N[C@@H](CO)C(=O)N[C@@H](CCCNC(=N)N)C(N)=O [SP-104] (H-Y[dA]DAIFTQSYRK[S5]LAA[S5]SARKALQDI[Nle]SR-NH2; staple 13-17) | 1.2 mg/mL |  |  |  |  |  |  | 
3 | CCCC[C@H](NC(=O)[C@@H](NC(=O)[C@H](CC(=O)O)NC(=O)[C@H](CCC(N)=O)NC(=O)[C@H](CC(C)C)NC(=O)[C@H](C)NC(=O)[C@H](CCCCN)NC(=O)[C@H](CCCNC(=N)N)NC(=O)[C@H](C)NC(=O)[C@H](CO)NC(=O)[C@]1(C)CCCC=CCCC[C@](C)(NC(=O)[C@H](CCCCN)NC(=O)[C@H](CCCNC(=N)N)NC(=O)[C@H](Cc2ccc(O)cc2)NC(=O)[C@H](CO)NC(=O)[C@H](CCC(N)=O)NC(=O)[C@@H](NC(=O)[C@H](Cc2ccccc2)NC(=O)[C@@H](NC(=O)[C@H](C)NC(=O)[C@H](CC(=O)O)NC(=O)[C@@H](C)NC(=O)[C@@H](N)Cc2ccc(O)cc2)[C@@H](C)CC)[C@@H](C)O)C(=O)N[C@@H](CC(C)C)C(=O)N[C@@H](C)C(=O)N[C@@H](CCC(=O)O)C(=O)N1)[C@@H](C)CC)C(=O)N[C@@H](CO)C(=O)N[C@@H](CCCNC(=N)N)C(N)=O [SP-105] (H-Y[dA]DAIFTQSYRK[S5]LAE[S5]SARKALQDI[Nle]SR-NH2; staple 13-17) | 1.2 mg/mL |  |  |  |  |  |  | 
4 | CCCC[C@@H]1NC(=O)[C@H]([C@@H](C)CC)NC(=O)[C@H](CC(=O)O)NC(=O)[C@@](C)(NC(=O)[C@H](CC(C)C)NC(=O)[C@H](C)NC(=O)[C@H](CCCCN)NC(=O)[C@H](CCCNC(=N)N)NC(=O)[C@H](C)NC(=O)[C@H](CO)NC(=O)[C@H](CC(C)C)NC(=O)[C@H](CCC(N)=O)NC(=O)[C@H](C)NC(=O)[C@H](CC(C)C)NC(=O)[C@@H](NC(=O)[C@H](CCCCN)NC(=O)[C@H](CCCNC(=N)N)NC(=O)[C@H](Cc2ccc(O)cc2)NC(=O)[C@H](CO)NC(=O)[C@H](C)NC(=O)[C@@H](NC(=O)[C@H](Cc2ccccc2)NC(=O)[C@@H](NC(=O)[C@H](C)NC(=O)[C@H](CC(=O)O)NC(=O)[C@H](C)NC(=O)[C@H](Cc2ccc(O)cc2)NC)[C@@H](C)CC)[C@@H](C)O)C(C)C)CCCC=CCCC[C@@](C)(C(=O)N[C@@H](CCCNC(=N)N)C(N)=O)NC1=O [SP-21] (H-[NMeY]ADAIFTASYRKVLAQLSARKAL[S5]DI[Nle][S5]R-NH2; staple 24-28; N-terminus and C-terminus assumed) |  | 9.4% | 5.3 h | 1.65 mL/min/kg | 0.524 L/kg | 10.1 h | 30500 ng·h/mL | 
5 | CCCC[C@H](NC(=O)[C@@H](NC(=O)[C@H](CC(=O)O)NC(=O)[C@H](CCC(N)=O)NC(=O)[C@H](CC(C)C)NC(=O)[C@H](C)NC(=O)[C@H](CCCCN)NC(=O)[C@H](CCCNC(=N)N)NC(=O)[C@H](C)NC(=O)[C@H](CO)NC(=O)[C@H](CC(C)C)NC(=O)[C@H](CCC(N)=O)NC(=O)[C@H](C)NC(=O)[C@H](CC(C)C)NC(=O)[C@@H](NC(=O)[C@H](CCCCN)NC(=O)[C@H](CCCNC(=N)N)NC(=O)[C@H](Cc1ccc(O)cc1)NC(=O)[C@H](CO)NC(=O)[C@H](C)NC(=O)[C@@H](NC(=O)[C@H](Cc1ccccc1)NC(=O)[C@@H](NC(=O)[C@]1(C)CCCC=CCCC[C@](C)(N)C(=O)N[C@@H](Cc2ccc(O)cc2)C(=O)N[C@@H](C)C(=O)N[C@@H](CC(=O)O)C(=O)N1)[C@@H](C)CC)[C@@H](C)O)C(C)C)[C@@H](C)CC)C(=O)N[C@@H](CO)C(=O)N[C@@H](CCCNC(=N)N)C(N)=O [SP-6] (H-[S5]YAD[S5]IFTASYRKVLAQLSARKALQDI[Nle]SR-NH2; staple 1-5) |  | 16.3% | 3.7 h | 2.13 mL/min/kg | 0.474 L/kg | 20.6 h | 23500 ng·h/mL | 25 to 50 nM
6 | CCCC[C@@H]1NC(=O)[C@H]([C@@H](C)CC)NC(=O)[C@H](CC(=O)O)NC(=O)[C@H](CCC(N)=O)NC(=O)[C@H](CC(C)C)NC(=O)[C@H](C)NC(=O)[C@](C)(NC(=O)[C@H](CCCNC(=N)N)NC(=O)[C@H](C)NC(=O)[C@H](CO)NC(=O)[C@H](CC(C)C)NC(=O)[C@H](CCC(N)=O)NC(=O)[C@H](C)NC(=O)[C@H](CC(C)C)NC(=O)[C@@H](NC(=O)[C@H](CCCCN)NC(=O)[C@H](CCCNC(=N)N)NC(=O)[C@H](Cc2ccc(O)cc2)NC(=O)[C@H](CO)NC(=O)[C@H](C)NC(=O)[C@@H](NC(=O)[C@H](Cc2ccccc2)NC(=O)[C@@H](NC(=O)[C@H](C)NC(=O)[C@H](CC(=O)O)NC(=O)[C@H](C)NC(=O)[C@H](Cc2ccc(O)cc2)NC)[C@@H](C)CC)[C@@H](C)O)C(C)C)CCCCCCC=CCCC[C@@](C)(C(=O)N[C@@H](CCCNC(=N)N)C(N)=O)NC1=O [SP-32] (H-[NMeY]ADAIFTASYRKVLAQLSAR[R8]ALQDI[Nle][S5]R-NH2; staple 21-28; N-terminus and C-terminus assumed) |  | 3.0% | 2.3 h | 1.35 mL/min/kg | 0.19 L/kg | 9.7 h | 37000 ng·h/mL | 
